Experimental findings from patent publication US9029360B2, “Pyrazolopyrimidines as metabotropic glutamate 5 receptor antagonists” (Boehringer Ingelheim International GmbH, priority 2012, dated 2015) are described below.

One assay has as its target human mGlu5a receptor (Homo sapiens (Human), UniProt P41594). In words: mGlu5 NAM FLIPR Assay (Assay 1). The note with it: for IC50: HEK293 cells stably expressing human mGlu5a, antagonism of EC90 glutamate, [Ca]i. The format is cell-based. The procedure:
A. mGlu5 NAM FLIPR Assay (Assay 1)
Activation of the mGluR5 receptor expressed in cell lines results in an increase in intracellular calcium concentration. Using calcium sensitive fluorescent dyes and a suited fluorescence plate reader this functional response is detectable and quantifiable. This technique could be used to characterize pharmacological modifications of the mGluR5 receptor.
[Ca]i measurements were performed in HEK293 cells stably expressing the full-length human mGlu5a receptor under the control of a tet-regulated promoter. Cells were cultivated in Dulbecco's modified eagle's medium (DMEM) with 10% fetal calf serum, 100 μg/ml HygromycinB, 500 μg/ml G418 and 2 μg/ml Tetracycline in a 37°, 95% humidity and 5% CO2 incubator. Confluent cell cultures were split on a bi-weekly schedule.
72 hours prior to the assay run mGluR5a expression was induced by replacing the culture medium by DMEM with 10% fetal calf serum without antibiotics. 24 hours prior to the assay run, cell medium was replaced after two wash steps by DMEM, 10% fetal calf serum without glutamine and phenol red. On the assay day, cells were detached from the culture flask by versene, washed, resuspended in a modified Ringer solution with 5 mM Glucose and 10 mM HEPES pH7.4, and plated on Poly-D-Lysine coated 384-well plates with a density of 10.000 cells/60 μl per well. After a seeding time of 1 hour in the incubator the cells were dye-loaded by adding 20 μl of a 4-fold concentrated dye solution from the Calcium 4 kit (Molecular Devices Inc., R8141) according to the manufacturer's manual and incubated for an additional 100 minutes. Compounds were prepared by a 11 point serial dilution in DMSO and a final dilution step into assay puffer (modified Ringer) to ensure a final DMSO concentration of 1% in the assay.
Measurements were done in a two-step procedure. A first measurement was performed directly after the addition of compounds to the cell plates to quantify and correct for compound related non specific effects (e.g. auto fluorescence). 5 minutes later, the antagonistic activities of the compounds were measured by addition of a EC90 concentration of the agonist glutamate (the EC90 concentration was controlled by glutamate dose-response curves). All measurements were done with a fluorimetric imaging plate reader (FLIPR, Molecular Devices Inc.).
IC50 values and Hill slopes were derived from 11-point four parametric non-linear curve fittings with the AssayExplorer software using peak heights of fluorescence signals.

A further assay concerns the target 11β-HSD1 (Homo sapiens (Human), UniProt P28845). In words: 11β-hydroxysteroid dehydrogenase (HSD) 1 Assay (Assay 2), HTRF. Format: biochemical. The note with it: for IC50: human liver microsomes, cortisol generated from cortisone, HTRF, read-out: 11βHSD1 IC50. The procedure:
The compounds of this invention or the physiological acceptable salts thereof were tested for their inhibitory effect on the enzyme 11β-hydroxysteroid dehydrogenase (HSD) 1.
B. 11β-hydroxysteroid dehydrogenase (HSD) 1 Assay (Assay 2)
Compounds were incubated for 1 hour at 37° C. in Tris buffer (20 mM tris, 5 mM EDTA, pH 6.0) containing NADPH (200 μM) and cortisone (80 nM). Cortisol generated in the reaction was then detected by a competitive immunoassay involving two HTRF conjugates: cortisol linked to XL665 and anticortisol antibody labeled with Europium cryptate. The incubation period for detection reaction was 2 hours. The amount of cortisol is determined by reading the time-resolved fluorescence of the wells (Ex 320/75 nm; Em 615/8.5 nm and 665/7.5 nm). The ratio of the two emission signals was then calculated (Em665*10000/Em615). […] Each assay also comprised a calibration curve with cortisol to transform the fluorescent data into cortisol concentrations.
Percent inhibition (% CTL) of each compound is determined relative to the carbenoxolone signal and IC50 curves were generated.
In general terms: In TR-FRET formats the signal depends on donor and acceptor labels being close together.

human mGlu5a receptor, sequence (P41594 other isoform, or with tags, fused parts or gaps): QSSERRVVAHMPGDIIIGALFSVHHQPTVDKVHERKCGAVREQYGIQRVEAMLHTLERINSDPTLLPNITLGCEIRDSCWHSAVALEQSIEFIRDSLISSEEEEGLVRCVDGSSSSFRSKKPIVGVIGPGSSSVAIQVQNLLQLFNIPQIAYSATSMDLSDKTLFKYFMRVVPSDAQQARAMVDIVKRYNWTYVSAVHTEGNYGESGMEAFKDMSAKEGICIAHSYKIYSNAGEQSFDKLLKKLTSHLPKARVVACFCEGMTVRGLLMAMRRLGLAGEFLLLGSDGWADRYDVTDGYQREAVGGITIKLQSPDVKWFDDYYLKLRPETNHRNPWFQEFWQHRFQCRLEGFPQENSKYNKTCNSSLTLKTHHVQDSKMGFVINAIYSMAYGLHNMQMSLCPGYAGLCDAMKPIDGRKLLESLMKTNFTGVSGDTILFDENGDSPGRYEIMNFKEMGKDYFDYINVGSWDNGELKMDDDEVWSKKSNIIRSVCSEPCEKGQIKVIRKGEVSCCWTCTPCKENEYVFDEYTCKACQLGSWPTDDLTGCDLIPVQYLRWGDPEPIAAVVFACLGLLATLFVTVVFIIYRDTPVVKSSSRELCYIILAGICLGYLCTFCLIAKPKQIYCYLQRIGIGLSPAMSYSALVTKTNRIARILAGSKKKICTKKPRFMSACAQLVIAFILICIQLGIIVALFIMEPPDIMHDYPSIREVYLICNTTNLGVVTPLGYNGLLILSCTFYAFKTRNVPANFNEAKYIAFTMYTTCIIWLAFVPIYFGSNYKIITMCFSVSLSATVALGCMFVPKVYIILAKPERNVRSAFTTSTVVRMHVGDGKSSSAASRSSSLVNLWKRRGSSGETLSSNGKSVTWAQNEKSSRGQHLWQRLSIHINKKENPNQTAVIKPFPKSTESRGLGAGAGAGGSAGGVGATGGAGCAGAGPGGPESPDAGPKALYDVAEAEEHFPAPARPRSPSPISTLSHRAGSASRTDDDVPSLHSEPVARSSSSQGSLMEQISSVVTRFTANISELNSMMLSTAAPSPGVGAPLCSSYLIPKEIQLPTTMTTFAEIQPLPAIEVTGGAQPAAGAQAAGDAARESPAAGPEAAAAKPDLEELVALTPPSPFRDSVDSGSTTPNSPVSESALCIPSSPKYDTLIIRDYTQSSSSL
11β-HSD1, sequence (P28845 whole entry): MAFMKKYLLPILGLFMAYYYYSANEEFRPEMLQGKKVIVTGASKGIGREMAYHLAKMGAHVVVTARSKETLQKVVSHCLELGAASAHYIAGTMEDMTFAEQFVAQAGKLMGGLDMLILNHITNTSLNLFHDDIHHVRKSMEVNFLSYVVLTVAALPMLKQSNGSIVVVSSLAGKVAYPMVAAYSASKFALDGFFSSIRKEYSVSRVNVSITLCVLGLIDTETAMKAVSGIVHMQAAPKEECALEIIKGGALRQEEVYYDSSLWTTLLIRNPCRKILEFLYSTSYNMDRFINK

By IC50 is commonly meant the concentration that inhibits the measured activity by half. As for `Cn1c2c(c3ccccc31)CCN(C(=O)c1cc3ncc(Br)cn3n1)CC2` [Example 17, (6-Bromo-pyrazolo[1,5-a]pyrimidin-2-yl)-(6-methyl-1,4,5,6-tetrahydro-2H-azepino[4,5-b]indol-3-yl)-methanone], the results for the half-maximal inhibitory concentration (IC50) on human mGlu5a receptor and on 11β-HSD1 were 550 nM and over 10000 nM, respectively.

As to `O=C(c1cc2ncc(Br)cn2n1)N1CCc2[nH]c(=O)sc2CC1` [Example 11, 6-(6-Bromo-pyrazolo[1,5-a]pyrimidine-2-carbonyl)-3,4,5,6,7,8-hexahydro-thiazolo[4,5-d]azepin-2-one], the IC50 against human mGlu5a receptor was 66 nM; on 11β-HSD1, over 10000 nM.

For `CCc1nc2c(s1)CCN(C(=O)c1cc3ncc(Br)cn3n1)CC2` [Example 4, (6-Bromo-pyrazolo[1,5-a]pyrimidin-2-yl)-(2-ethyl-4,5,7,8-tetrahydro-thiazolo[4,5-d]azepin-6-yl)-methanone], the results for the half-inhibitory concentration (IC50) on human mGlu5a receptor and on 11β-HSD1 were 33 nM and over 10000 nM, respectively.

For the compound `O=C(c1cc2ncc(Br)cn2n1)N1CCCCC1` [Example 4-21, reference compound], the IC50 at human mGlu5a receptor and at 11β-HSD1 was over 10000 nM in each case.

As for `COc1ccc(-c2cc(C(F)(F)F)n3nc(C(=O)N4CCc5ncsc5CC4)cc3n2)cc1` [C, reference compound], the half-inhibitory concentration (IC50) on human mGlu5a receptor and on 11β-HSD1 was over 10000 nM in each case.

Compound `CC(C)c1nc2c(s1)CCN(C(=O)c1cc3ncc(Cl)cn3n1)CC2` [Example 18, (6-Chloro-pyrazolo[1,5-a]pyrimidin-2-yl)-(2-isopropyl-4,5,7,8-tetrahydro-thiazolo[4,5-d]azepin-6-yl)-methanone] returned an IC50 on human mGlu5a receptor of 235 nM.

Take `O=C(c1cc2ncc(Br)cn2n1)N1CCc2ccc(Cl)nc2CC1` [Example 1, (6-Bromo-pyrazolo[1,5-a]pyrimidin-2-yl)-(2-chloro-5,6,8,9-tetrahydro-pyrido[2,3-d]azepin-7-yl)-methanone]: the 50% inhibitory concentration (IC50) at human mGlu5a receptor was 146 nM; on 11β-HSD1 it was over 10000 nM.

In the case of `O=C(c1cc2ncc(Br)cn2n1)N1CCc2cccnc2CC1` [Example 14, (6-Bromo-pyrazolo[1,5-a]pyrimidin-2-yl)-(5,6,8,9-tetrahydro-pyrido[2,3-d]azepin-7-yl)-methanone], the half-inhibitory concentration (IC50) against human mGlu5a receptor was 603 nM; at 11β-HSD1, over 10000 nM.

Turning to `O=C(c1cc2ncc(Br)cn2n1)N1CCc2ncsc2CC1` [Example 5, (6-Bromo-pyrazolo[1,5-a]pyrimidin-2-yl)-(4,5,7,8-tetrahydro-thiazolo[4,5-d]azepin-6-yl)-methanone], the half-maximal inhibitory concentration (IC50) on human mGlu5a receptor is 110 nM; on 11β-HSD1, over 10000 nM.

For `O=C(c1cc2ncc(Cl)cn2n1)N1CCc2[nH]c(=O)sc2CC1` [Example 19, 6-(6-Chloro-pyrazolo[1,5-a]pyrimidine-2-carbonyl)-3,4,5,6,7,8-hexahydro-thiazolo[4,5-d]azepin-2-one], the IC50 against human mGlu5a receptor came to 128 nM.

Take `O=C(c1cc2ncc(Br)cn2n1)N1CCCCCC1` [B, reference compound]: on human mGlu5a receptor, the “activity in assay 1 (mGlu5), in words” value is “inactivity” and the IC50 was over 10000 nM. For the same compound, on 11β-HSD1, the “activity on 11βHSD1 (assay 2), in words” value was “inactivity” and the IC50 is over 10000 nM.

Regarding `Cc1cnc2cc(C(=O)N3CCc4ncsc4CC3)nn2c1` [Example 9], the IC50 against human mGlu5a receptor was 1420 nM; on 11β-HSD1 it was over 10000 nM.

Consider `Cc1nc2c(s1)CCN(C(=O)c1cc3ncc(Cl)cn3n1)CC2` [Example 13, (6-Chloro-pyrazolo[1,5-a]pyrimidin-2-yl)-(2-methyl-4,5,7,8-tetrahydro-thiazolo[4,5-d]azepin-6-yl)-methanone], for which the IC50 was 63 nM against human mGlu5a receptor and over 10000 nM at 11β-HSD1.

Turning to `O=C(c1cc2ncc(Br)cn2n1)N1CCc2ccsc2CC1` [Example 3, (6-Bromo-pyrazolo[1,5-a]pyrimidin-2-yl)-(4,5,7,8-tetrahydro-thieno[2,3-d]azepin-6-yl)-methanone], the IC50 against human mGlu5a receptor is 1380 nM; at 11β-HSD1 it was over 10000 nM.

On to `O=C(c1cc2ncc(Br)cn2n1)N1CCCC1` [A, reference compound], for which, on human mGlu5a receptor, the “activity in assay 1 (mGlu5), in words” value was “inactivity” and the IC50 was over 10000 nM. For the same compound, the “activity on 11βHSD1 (assay 2), in words” value on 11β-HSD1 is on record as “inactivity”.

On to `COCc1nc2c(s1)CCN(C(=O)c1cc3ncc(Br)cn3n1)CC2` [Example 8, (6-Bromo-pyrazolo[1,5-a]pyrimidin-2-yl)-(2-methoxymethyl-4,5,7,8-tetrahydro-thiazolo[4,5-d]azepin-6-yl)-methanone], for which the figures for the IC50 at human mGlu5a receptor and on 11β-HSD1 were 1540 nM and over 10000 nM, respectively.

`O=C(c1cc2ncc(Br)cn2n1)N1CCc2cc(Cl)nnc2CC1` [Example 7, (6-Bromo-pyrazolo[1,5-a]pyrimidin-2-yl)-(3-chloro-5,6,8,9-tetrahydro-1,2,7-triaza-benzocyclohepten-7-yl)-methanone]: the 50% inhibitory concentration (IC50) is 340 nM on human mGlu5a receptor and over 10000 nM on 11β-HSD1.

Consider `Cn1c2c(sc1=O)CCN(C(=O)c1cc3ncc(Br)cn3n1)CC2` [Example 16, 6-(6-Bromo-pyrazolo[1,5-a]pyrimidine-2-carbonyl)-3-methyl-3,4,5,6,7,8-hexahydro-thiazolo[4,5-d]azepin-2-one], for which the IC50 was 1280 nM at human mGlu5a receptor and over 10000 nM on 11β-HSD1.

Turning to `O=C(c1cc2ncc(Cl)cn2n1)N1CCc2ncsc2CC1` [Example 10, (6-Chloro-pyrazolo[1,5-a]pyrimidin-2-yl)-(4,5,7,8-tetrahydro-thiazolo[4,5-d]azepin-6-yl)-methanone], the IC50 is 59 nM on human mGlu5a receptor and over 10000 nM on 11β-HSD1.

On to `O=C(c1cc2ncc(Br)cn2n1)N1CCOCC1` [Example 4-22, reference compound], for which the IC50 against human mGlu5a receptor and at 11β-HSD1 was over 10000 nM throughout.

With `Cc1cc(C(F)(F)F)n2nc(C(=O)N3CCc4ncsc4CC3)cc2n1` [D, reference compound], the IC50 against human mGlu5a receptor and on 11β-HSD1 was over 10000 nM throughout.

As for “(6-Bromo-pyrazolo[1,5-a]pyrimidin-2-yl)-(2-methyl-4,5,7,8-tetrahydro-3H-1lambda*4*-thiazolo[4,5-d]azepin-6-yl)-methanone [Example 6]”, the IC50 against human mGlu5a receptor was 43 nM; on 11β-HSD1, over 10000 nM.

As for `COc1ccc2c(n1)CCN(C(=O)c1cc3ncc(Br)cn3n1)CC2` [Example 2, (6-Bromo-pyrazolo[1,5-a]pyrimidin-2-yl)-(2-methoxy-5,6,8,9-tetrahydro-pyrido[2,3-d]azepin-7-yl)-methanone], the figures for the IC50 against human mGlu5a receptor and on 11β-HSD1 were 230 nM and over 10000 nM, respectively.

As to `Cn1cnc2c1CCN(C(=O)c1cc3ncc(Br)cn3n1)CC2` [Example 15, (6-Bromo-pyrazolo[1,5-a]pyrimidin-2-yl)-(1-methyl-4,5,7,8-tetrahydro-1H-imidazo[4,5-d]azepin-6-yl)-methanone], the IC50 is 692 nM on human mGlu5a receptor and over 10000 nM on 11β-HSD1.

Turning to `COc1cccc(-c2cc(C(F)(F)F)n3nc(C(=O)N4CCc5ncsc5CC4)cc3n2)c1` [E, reference compound], the 50% inhibitory concentration (IC50) at human mGlu5a receptor and at 11β-HSD1 was over 10000 nM throughout.

For `CC(C)c1nc2c(s1)CCN(C(=O)c1cc3ncc(Br)cn3n1)CC2` [Example 12, (6-Bromo-pyrazolo[1,5-a]pyrimidin-2-yl)-(2-isopropyl-4,5,7,8-tetrahydro-thiazolo[4,5-d]azepin-6-yl)-methanone], the IC50 against human mGlu5a receptor was 148 nM; on 11β-HSD1, over 10000 nM.
